Test results published in paper PMC11879040, “Advancing systemic toxicity risk assessment: Evaluation of a NAM-based toolbox approach” (Toxicological Sciences, 2024).
In brackets after ≈: the same amount, converted by molar mass. Read-outs that look alike come from different tables or passages of the source.

Experiments:
HepG2 cells [1] = assay: High-throughput transcriptomics (HTTr, TempO-Seq), HepG2, 24 h; format: cell-based, human; conditions: HepG2; for pod_httr_bifrost PoD: HTTr BIFROST PoD; for podl_path_minbmd PoD: HTTr minimum pathway BMD(L)
Procedure: (§1) HepG2, HepaRG, and MCF7 cells were treated with each compound for 24 h across a dose range of 7 concentrations and lysed using TempO-Seq lysis buffer (BioSpyder Technologies, proprietary kit, see [Middleton et al. 2022] for method details). Sequencing was performed using TempO-Seq (BioClavis) version 2 of the human whole transcriptome panel and analyzed as described previously in Middleton et al.

[2] = test system: Thyroid hormone receptor alpha, THRA (h); assay: IPP THRA coactivator recruitment (agonist); format: biochemical, human; conditions: 10 uM; agonist; T3
[3] = biological target: Voltage-dependent L-type Ca2+ channel (dihydropyridine site), CACNA1C (r) (Rattus norvegicus, UniProt P22002); format: binding
Sequence of Voltage-dependent L-type Ca2+ channel (dihydropyridine site), CACNA1C (r) (P22002 whole entry): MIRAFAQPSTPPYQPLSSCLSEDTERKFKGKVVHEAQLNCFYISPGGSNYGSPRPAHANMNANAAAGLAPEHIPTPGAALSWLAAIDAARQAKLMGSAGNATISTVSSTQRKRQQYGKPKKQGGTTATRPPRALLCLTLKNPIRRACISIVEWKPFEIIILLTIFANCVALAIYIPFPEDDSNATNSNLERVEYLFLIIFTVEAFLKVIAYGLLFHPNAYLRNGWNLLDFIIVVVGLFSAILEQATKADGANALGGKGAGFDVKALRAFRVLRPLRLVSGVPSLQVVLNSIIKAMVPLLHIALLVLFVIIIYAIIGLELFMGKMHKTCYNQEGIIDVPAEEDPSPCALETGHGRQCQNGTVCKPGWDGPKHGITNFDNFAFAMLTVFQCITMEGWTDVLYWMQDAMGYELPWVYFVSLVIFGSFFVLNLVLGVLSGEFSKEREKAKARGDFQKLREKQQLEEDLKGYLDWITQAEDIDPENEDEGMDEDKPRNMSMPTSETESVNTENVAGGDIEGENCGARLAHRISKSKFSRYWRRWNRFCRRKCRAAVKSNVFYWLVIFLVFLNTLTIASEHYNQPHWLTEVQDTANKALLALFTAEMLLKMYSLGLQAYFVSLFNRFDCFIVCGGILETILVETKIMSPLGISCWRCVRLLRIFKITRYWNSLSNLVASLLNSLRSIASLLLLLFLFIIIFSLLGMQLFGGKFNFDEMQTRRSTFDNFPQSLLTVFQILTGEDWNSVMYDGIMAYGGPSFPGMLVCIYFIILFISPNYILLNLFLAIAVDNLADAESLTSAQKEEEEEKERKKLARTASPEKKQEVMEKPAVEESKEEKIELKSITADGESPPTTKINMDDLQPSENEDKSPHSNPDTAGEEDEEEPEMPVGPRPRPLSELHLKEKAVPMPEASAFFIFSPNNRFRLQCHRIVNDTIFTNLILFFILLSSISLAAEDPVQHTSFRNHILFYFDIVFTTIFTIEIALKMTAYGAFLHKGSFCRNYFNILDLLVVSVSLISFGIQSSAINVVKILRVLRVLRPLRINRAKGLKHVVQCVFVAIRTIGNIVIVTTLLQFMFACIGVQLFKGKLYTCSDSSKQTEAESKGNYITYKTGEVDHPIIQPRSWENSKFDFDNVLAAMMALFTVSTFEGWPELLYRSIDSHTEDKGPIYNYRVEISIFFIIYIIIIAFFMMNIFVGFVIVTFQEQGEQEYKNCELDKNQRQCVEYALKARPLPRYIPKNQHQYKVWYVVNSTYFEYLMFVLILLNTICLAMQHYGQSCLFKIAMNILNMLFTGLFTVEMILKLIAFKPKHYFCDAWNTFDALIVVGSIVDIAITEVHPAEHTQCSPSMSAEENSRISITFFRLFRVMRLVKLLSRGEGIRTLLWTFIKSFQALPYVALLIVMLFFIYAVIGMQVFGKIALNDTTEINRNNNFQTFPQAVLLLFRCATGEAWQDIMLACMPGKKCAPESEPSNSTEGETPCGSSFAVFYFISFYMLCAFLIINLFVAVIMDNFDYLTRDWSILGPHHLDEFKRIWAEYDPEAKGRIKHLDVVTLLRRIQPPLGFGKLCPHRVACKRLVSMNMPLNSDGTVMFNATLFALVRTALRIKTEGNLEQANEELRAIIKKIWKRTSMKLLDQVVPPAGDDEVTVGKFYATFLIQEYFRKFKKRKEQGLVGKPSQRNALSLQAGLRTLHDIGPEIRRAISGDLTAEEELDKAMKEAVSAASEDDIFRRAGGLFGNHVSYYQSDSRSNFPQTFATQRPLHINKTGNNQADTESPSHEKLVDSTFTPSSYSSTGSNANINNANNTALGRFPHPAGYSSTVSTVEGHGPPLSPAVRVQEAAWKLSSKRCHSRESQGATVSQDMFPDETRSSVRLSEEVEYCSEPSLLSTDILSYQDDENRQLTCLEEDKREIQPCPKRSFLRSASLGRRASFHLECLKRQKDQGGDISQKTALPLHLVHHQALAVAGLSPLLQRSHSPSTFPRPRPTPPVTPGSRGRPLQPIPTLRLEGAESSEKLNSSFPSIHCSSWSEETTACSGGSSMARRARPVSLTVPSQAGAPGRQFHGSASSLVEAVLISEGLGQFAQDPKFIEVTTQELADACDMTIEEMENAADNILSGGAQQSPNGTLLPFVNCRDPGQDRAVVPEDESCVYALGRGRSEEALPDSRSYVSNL

HepaRG cells = assay: High-throughput transcriptomics (HTTr, TempO-Seq), HepaRG, 24 h; format: cell-based, human; conditions: HepaRG; for pod_httr_bifrost PoD: HTTr BIFROST PoD; for podl_path_minbmd PoD: HTTr minimum pathway BMD(L)
Procedure: as §1

physchem = conditions: pH 5.22, water
[4] = test system: Sodium channel protein type 5 subunit alpha (site 2), SCN5A (r); format: binding, rat
HepG2 cells [5] = assay: Cell stress panel (CSP), 24 h, 8 concentrations, BIFROST global PoD; format: cell-based; conditions: for pod_cell_stress PoD: HepG2, cell stress panel PoD
Procedure: Compounds were tested using the previously developed cell stress panel ([Hatherell et al. 2020]) and the expanded biomarker panel outlined in Middleton et al. HepG2 cells were treated with all compounds for 24 h across 8 concentrations prior to biomarker analysis. The same plate layout and number of replicates (3 biological and 2 technical) were used as previously for each assay within the panel.

[6] = test system: Gamma-aminobutyric acid receptor subunit alpha-1 BZD site, GABRA1A (r); format: binding, rat
rat = conditions: cited from earlier work
[7] = test system: Potassium Voltage-Gated Channel Kv non-selective, KCNQ1 (r); assay: IPP KCNQ1 binding (antagonist radioligand); design: species or system rat; conditions: IPP screening at 10 uM; control α-dendrotoxin
[8] = human
Tubulin (r) = assay: IPP Tubulin binding; design: species or system rat; conditions: 10 uM; ligand/control Colchicine
[9] = test system: Glutamate receptor ionotropic NMDA 1 non-selective, GRIN1 (r)
[10] = biological target: T1, Adenosine receptor A2a, ADORA2A (h) (Homo sapiens, UniProt P29274); assay: IPP ADORA2A binding (agonist radioligand); conditions: IPP screening at 10 uM; control NECA
T1 construct: purchased Eurofins Cerep (SafetyScreen44-based IPP panel)
T1 sequence (P29274 whole entry): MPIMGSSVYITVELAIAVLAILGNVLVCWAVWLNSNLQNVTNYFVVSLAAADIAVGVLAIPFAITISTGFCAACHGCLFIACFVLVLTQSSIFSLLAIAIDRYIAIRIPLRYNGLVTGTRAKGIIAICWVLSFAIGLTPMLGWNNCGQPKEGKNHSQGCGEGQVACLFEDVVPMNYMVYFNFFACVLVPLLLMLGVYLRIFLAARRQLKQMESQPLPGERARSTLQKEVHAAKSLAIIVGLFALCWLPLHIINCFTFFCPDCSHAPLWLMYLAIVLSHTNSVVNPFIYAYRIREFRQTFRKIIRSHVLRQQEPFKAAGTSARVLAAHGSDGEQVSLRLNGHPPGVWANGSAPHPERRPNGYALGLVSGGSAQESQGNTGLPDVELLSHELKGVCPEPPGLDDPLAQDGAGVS

[11] = cited from earlier work
[12] = human; remark: listed apart in the source
MCF7 cells = assay: High-throughput transcriptomics (HTTr, TempO-Seq), MCF7, 24 h; format: cell-based, human; conditions: MCF-7; for pod_httr_bifrost PoD: HTTr BIFROST PoD; for podl_path_minbmd PoD: HTTr minimum pathway BMD(L)
Procedure: as §1

[13] = test system: 63 targets with known safety liabilities; assay: In vitro pharmacological profiling (IPP) panel, screening at 10 or 100 µM and dose response, minimum IC50/AC50; format: biochemical; conditions: lowest AC50 across IPP panel (systemic targets); cell_type -; read-out: ipp_lowest_ac50_systemic PoD
[14] = biological target: Potassium voltage-gated channel subfamily H member 2 hERG, KCNH2 (h) (Homo sapiens, UniProt Q12809); conditions: 10 uM; [3H] Dofetilide; control Terfenadine
Sequence of Potassium voltage-gated channel subfamily H member 2 hERG, KCNH2 (h) (Q12809 whole entry): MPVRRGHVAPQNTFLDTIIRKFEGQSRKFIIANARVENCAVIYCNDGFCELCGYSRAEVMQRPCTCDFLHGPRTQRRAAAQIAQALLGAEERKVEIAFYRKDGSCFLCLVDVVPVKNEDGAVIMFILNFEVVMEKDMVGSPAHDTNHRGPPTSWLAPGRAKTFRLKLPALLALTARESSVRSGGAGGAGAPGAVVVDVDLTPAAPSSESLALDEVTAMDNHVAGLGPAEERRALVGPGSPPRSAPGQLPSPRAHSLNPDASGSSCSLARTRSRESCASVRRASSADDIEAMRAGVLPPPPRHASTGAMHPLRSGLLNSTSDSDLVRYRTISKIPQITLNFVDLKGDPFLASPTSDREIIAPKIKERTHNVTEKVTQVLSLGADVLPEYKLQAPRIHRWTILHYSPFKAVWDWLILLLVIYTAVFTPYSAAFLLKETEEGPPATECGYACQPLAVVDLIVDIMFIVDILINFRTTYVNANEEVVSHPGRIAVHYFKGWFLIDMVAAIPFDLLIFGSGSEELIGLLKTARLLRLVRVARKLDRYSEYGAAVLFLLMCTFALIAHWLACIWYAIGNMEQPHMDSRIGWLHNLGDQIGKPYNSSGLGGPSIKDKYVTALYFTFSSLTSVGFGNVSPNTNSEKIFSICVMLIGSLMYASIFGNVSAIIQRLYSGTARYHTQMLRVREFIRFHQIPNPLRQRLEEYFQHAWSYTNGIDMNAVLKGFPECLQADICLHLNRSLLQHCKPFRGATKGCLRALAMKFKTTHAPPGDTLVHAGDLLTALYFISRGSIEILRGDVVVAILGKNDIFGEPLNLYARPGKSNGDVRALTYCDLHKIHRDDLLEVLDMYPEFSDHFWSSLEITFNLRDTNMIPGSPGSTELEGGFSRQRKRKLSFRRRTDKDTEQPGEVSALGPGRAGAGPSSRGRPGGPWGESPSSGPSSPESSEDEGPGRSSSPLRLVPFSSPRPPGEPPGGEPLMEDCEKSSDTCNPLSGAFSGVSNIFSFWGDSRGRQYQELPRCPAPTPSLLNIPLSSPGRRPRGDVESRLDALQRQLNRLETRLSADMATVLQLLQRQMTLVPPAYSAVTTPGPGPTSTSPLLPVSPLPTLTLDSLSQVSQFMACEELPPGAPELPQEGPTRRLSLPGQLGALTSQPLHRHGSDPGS

[15] = biological target: 5-hydroxytryptamine receptor 2B, HTR2B (h) (Homo sapiens, UniProt P41595); assay: biochemical
Sequence of 5-hydroxytryptamine receptor 2B, HTR2B (h) (P41595 whole entry): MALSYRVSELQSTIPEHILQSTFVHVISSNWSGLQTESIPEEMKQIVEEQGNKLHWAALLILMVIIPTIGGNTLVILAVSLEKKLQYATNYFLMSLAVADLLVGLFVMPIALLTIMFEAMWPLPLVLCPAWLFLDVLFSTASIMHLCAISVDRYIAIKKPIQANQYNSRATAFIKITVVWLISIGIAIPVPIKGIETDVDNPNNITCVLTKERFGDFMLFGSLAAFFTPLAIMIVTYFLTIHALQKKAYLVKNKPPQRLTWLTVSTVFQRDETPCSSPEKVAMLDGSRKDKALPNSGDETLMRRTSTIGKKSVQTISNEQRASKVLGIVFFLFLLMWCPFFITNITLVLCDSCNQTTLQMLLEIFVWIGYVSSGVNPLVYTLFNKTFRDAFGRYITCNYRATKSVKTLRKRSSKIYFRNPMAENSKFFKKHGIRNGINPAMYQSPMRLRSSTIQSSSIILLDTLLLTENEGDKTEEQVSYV

dog = conditions: 52 weeks, ref ToxRefDB/Paul-Friedman et al. (2020)/regulatory opinions; cited from earlier work
[16] = biological target: T2, Estrogen receptor, ER1 (h) (Homo sapiens, UniProt P03372); assay: IPP ER1 coactivator recruitment (antagonist); format: biochemical; conditions: 10 uM, estriol
T2 construct: purchased Eurofins Cerep (SafetyScreen44-based IPP panel)
T2 sequence (P03372 1-595): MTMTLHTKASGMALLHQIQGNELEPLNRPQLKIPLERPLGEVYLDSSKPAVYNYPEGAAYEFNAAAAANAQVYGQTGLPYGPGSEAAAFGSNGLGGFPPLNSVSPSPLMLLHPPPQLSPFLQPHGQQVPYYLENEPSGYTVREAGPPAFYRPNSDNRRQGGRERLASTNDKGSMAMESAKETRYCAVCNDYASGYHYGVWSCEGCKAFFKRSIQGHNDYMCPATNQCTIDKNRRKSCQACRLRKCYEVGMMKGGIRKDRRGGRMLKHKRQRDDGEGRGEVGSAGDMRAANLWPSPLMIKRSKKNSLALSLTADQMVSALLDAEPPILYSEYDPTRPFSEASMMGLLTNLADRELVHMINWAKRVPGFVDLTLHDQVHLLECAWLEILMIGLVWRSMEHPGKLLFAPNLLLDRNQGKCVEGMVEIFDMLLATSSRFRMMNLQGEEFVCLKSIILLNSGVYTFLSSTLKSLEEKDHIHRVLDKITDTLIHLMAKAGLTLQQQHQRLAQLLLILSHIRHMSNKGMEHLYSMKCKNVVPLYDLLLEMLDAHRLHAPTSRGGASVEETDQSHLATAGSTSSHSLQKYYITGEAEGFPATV

[17] = biological target: T2, Estrogen receptor, ER1 (h); assay: IPP ER1 coactivator recruitment (agonist); format: biochemical; conditions: 10 uM, estriol
[18] = IV bolus 100 mg solution, 20 renal transplant patients, validation, ref Lin et al. 1980
[19] = IV bolus 100 mg solution, uremic patients, validation, ref Odlind et al. 1986
[20] = Oral tablet 100 mg, fasted, uremic patients, calibration, ref Odlind et al. 1986

SMILES: Cn1cnc([N+](=O)[O-])c1Sc1ncnc2nc[nH]c12 [Azathioprine, 6-[(1-Methyl-4-nitro-1H-imidazol-5-yl)sulfanyl]-7H-purine]
- pod_httr_bifrost PoD (HepG2 cells [1]): 0.01764 µM
- podl_path_minbmd PoD (HepG2 cells [1]): 0.1634 µM
- IPP screening %, Coactivator recruitment [2]: 3.0%
- Specific binding [3]: -9.0%
- pod_httr_bifrost PoD (HepaRG cells): 0.8426 µM
- podl_path_minbmd PoD (HepaRG cells): 3.742 µM
- solubility (physchem): 231 µg/mL (≈ 833 µM)
- Specific binding [4]: -8.7%
- Bioactivity Observations: cell stress panel (HepG2 cells [5]): The leading PoD is extrapolated below the lowest dose tested in the CSP
- pod_cell_stress PoD (HepG2 cells [5]): 3.96e-05 µM
- Specific binding [6]: 17.2%
- PoD (NOAEL) (rat; rat, 28 days, haematological changes, ref ToxRefDB/Paul-Friedman et al. (2020)/regulatory opinions): 3 mg/kg bw/day
- Specific binding [7]: 1.0%
- Intrinsic Liver Clearance [8]: 4323.84 L/h
- IPP screening %, Specific binding (Tubulin (r)): 6.0%
- Specific binding [9]: 4.2%
- Specific binding [10]: 38.3%
- Reported AUC0-t [11, 18]: 430 ng·h/mL
- Reported cmax [11, 18]: 0.9163 µg/mL
- Reported tmax [11, 18]: 0 min
- Reported AUC0-t [11, 19]: 1032.5 ng·h/mL
- Reported cmax [11, 19]: 0.7498 µg/mL
- Reported tmax [11, 19]: 7.524 min
- Reported AUC0-t [11, 20]: 100 ng·h/mL
- Reported cmax [11, 20]: 0.0478 µg/mL
- Reported tmax [11, 20]: 32.87 min
- risk [12]: 1
- pod_httr_bifrost PoD (MCF7 cells): 0.1265 µM
- podl_path_minbmd PoD (MCF7 cells): 0.2237 µM

SMILES: CC1(C)C(C=C(Cl)Cl)C1C(=O)OC(C#N)c1cccc(Oc2ccccc2)c1 (centres unmarked) [Cypermethrin, Cyano(3-phenoxyphenyl)methyl 3-(2,2-dichloroethenyl)-2,2-dimethylcyclopropane-1-carboxylate]
- AC50 [13]: 490 nM
- pod_httr_bifrost PoD (HepG2 cells [1]): 2.669 µM
- podl_path_minbmd PoD (HepG2 cells [1]): 2.638 µM
- IPP screening %, Specific binding [14]: 22.7%
- IPP screening %, Coactivator recruitment [2]: 0.0%
- pod_httr_bifrost PoD (HepaRG cells): 4.402 µM
- podl_path_minbmd PoD (HepaRG cells): 35.2754 µM
- Specific binding ([4]; IPP screening at 10 uM, control veratridine): -112.7%
- pod_cell_stress PoD (HepG2 cells [5]): 7.881 µM
- Specific binding ([6]; IPP screening at 10 uM, control diazepam): 5.5%
- Lowest NOAEL (rat; rat chronic study, route of administration not reported, ref not given): Lowest NOAEL is 0.5 mg/kg from a rat chronic study, but the route of administration isn't reported. 1 mg/kg/day is NOAEL from 52 week dog study
- Specific binding [7]: 0.9%
- IC50 [15]: > 570 nM
- IPP screening %, Specific binding (Tubulin (r)): 8.0%
- Specific binding ([9]; IPP screening at 10 uM, control CGS 19755): 11.4%
- Specific binding [10]: 0.1%
- PoD (NOAEL) (dog): 1 mg/kg bw/day
- IPP screening %, Coactivator recruitment [16]: 0.0%
- IPP screening %, Coactivator recruitment [17]: 0.0%
- pod_httr_bifrost PoD (MCF7 cells): 8.9686 µM
- podl_path_minbmd PoD (MCF7 cells): 25.4106 µM
